The results in this text go back to publication PMC10745659, “Chemical Constituents and α-Glucosidase Inhibitory, Antioxidant and Hepatoprotective Activities of Ampelopsis grossedentata” (Molecules, 2023).

Test [1] can be described thus: DPPH free radical scavenging assay. The following applies: mean ± SD, n = 4; ascorbic acid positive control. The procedure:
The DPPH free radical scavenging capacity of isolated compounds was determined according to a modified method. […] All isolated compounds and positive drug were dissolved and diluted in DMSO and DPPH (2,2-Diphenyl-1-picrylhydrazyl) was dissolved in anhydrous ethanol. Briefly, 190 μL of a working solution of DPPH (0.2 mM) was added to each well. Then, 10 μL of a sample solution of different concentrations (1.6, 1.2, 0.8, 0.4, 0.2, and 0.1 mM) was added, mixed well, and left to incubate in the dark at room temperature for 60 min. After that, the absorbance values of each well were measured at 517 nm using a microplate reader and the results were obtained from a minimum of three independent experiments. Ascorbic acid was used as the positive control. DMSO was used to replace the sample solution as a blank and absolute ethanol was used to replace the DPPH solution as a control.
The percentage free radical scavenging rate (%) of each test sample for DPPH was calculated as:Free radical scavenging rate (%) = [Ablank − (Asample − Acontral)] ÷ Ablank × 100%
A general note: Loss of DPPH colour is used to gauge radical scavenging.

Test [2] in a line: ABTS radical cation scavenging assay. The following applies: mean ± SD, n = 4; ascorbic acid positive control. The procedure: The ABTS free radical scavenging capacity of all isolated compounds was measured, the procedure followed a method with minor modifications. […] Equal volumes of ABTS (2,2′-azinobis(3-ethylbenzthiazoline-6-sulphonic acid)) solution (7 mM) and potassium persulfate solution (2.45 mM) were mixed evenly and left to react at room temperature for 12 h in the dark to obtain ABTS radical cation. The mixture was then diluted with anhydrous methanol to achieve an absorbance value of about 0.7 ± 0.02 units at 405 nm. Then, 190 μL of ABTS working solution was added to each well, followed by 10 μL samples of varying concentrations (0.8, 0.4, 0.2, 0.1, 0.05, 0.025, 0.0125, and 0.00625 mM) that were dissolved and diluted with DMSO. After mixing well, the samples were incubated at room temperature for 6 min away from light. The subsequent experimental method is basically consistent with the DPPH assay, the only difference is that ABTS assay detects the absorbance value at 405 nm.
The percentage radical cation scavenging rate (%) of each test sample for ABTS was calculated as follows:Radical cation scavenging rate (%) = [Ablank − (Asample − Acontral)] ÷ Ablank × 100%
The IC50 values were calculated by using GraphPad Prism 9.0 software.

Test [3] is described as follows: FRAP assay (total antioxidant capacity). To be noted: for FRAP Assay: Fe2+ concentration equivalent, sample solution 0.68 mM, mean ± SD, n = 4. The procedure:
The total antioxidant capacity of the samples was measured by the FRAP (ferric reducing ability of plasma) assay, with slight modifications. The acetate buffer (0.3 M, pH 3.6), TPTZ (2,4,6-tris(2-pyridyl)-S-triazine) solution (10 mM) in 40 mM HCl and ferric chloride aqueous solution (10 mM) were uniformly mixed at a volume ratio of 7:1:1 to obtain the FRAP working solution. FRAP working solution was preheated for 10 min in a constant temperature incubator at 37 °C before use. […] Then, 180 μL of FRAP working solution was added to each well, followed by 6 μL of sample solution (0.68 mM), and finally 18 μL of distilled water. Then, the mixture was stirred well and left to react at room temperature for 10 min. The absorbance values of each well were measured at 593 nm using a microplate reader and the results were obtained from at least three independent experiments. The sample solution was replaced with DMSO as a blank solution and ascorbic acid was used as a positive control. Different concentrations of FeSO4·7H2O (0.075–0.00078 μmol/mL) were used to establish the standard curve. The antioxidant capacity of the sample was expressed as the Fe^2+ concentration (μmol/mL) required to achieve the same absorbance change value. The final result was calculated by GraphPad Prism 9.0 software and presented as mean ± standard deviation (SD) of μmol Fe^2+ per milliliter.

For test [4], the target named is α-glucosidase (Saccharomyces cerevisiae, UniProt P53341). As to the kind of experiment: α-glucosidase inhibitory assay (p-NPG substrate). The class given is biochemical.
Chain of α-glucosidase (P53341 whole entry): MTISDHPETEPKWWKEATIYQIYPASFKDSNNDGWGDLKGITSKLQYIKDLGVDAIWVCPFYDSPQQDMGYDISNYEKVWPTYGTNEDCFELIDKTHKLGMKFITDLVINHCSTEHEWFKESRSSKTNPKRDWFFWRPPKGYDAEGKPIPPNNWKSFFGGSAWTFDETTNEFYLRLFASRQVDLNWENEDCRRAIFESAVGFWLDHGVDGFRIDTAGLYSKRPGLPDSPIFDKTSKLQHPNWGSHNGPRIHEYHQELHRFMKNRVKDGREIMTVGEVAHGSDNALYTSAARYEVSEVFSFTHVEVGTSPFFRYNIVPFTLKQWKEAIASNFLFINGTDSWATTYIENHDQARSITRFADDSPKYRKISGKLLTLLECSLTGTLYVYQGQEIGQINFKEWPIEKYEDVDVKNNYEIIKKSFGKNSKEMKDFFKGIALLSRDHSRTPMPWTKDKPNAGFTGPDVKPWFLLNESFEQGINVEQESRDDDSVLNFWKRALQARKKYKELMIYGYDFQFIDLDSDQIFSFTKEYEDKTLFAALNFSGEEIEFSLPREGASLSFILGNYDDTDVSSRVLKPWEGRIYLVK
Protocol: The α-glucosidase inhibitory activities of isolated compounds were evaluated by using a method previously described, but with minor modifications [34]. […] Briefly, 98 μL of PBS (0.1 M, pH 6.8) was added to each well. Then, 2 μL of different concentrations of sample solutions and 25 μL of α-glucosidase solution (0.25 U/mL) were added. After shaking and mixing slightly, the 96-well plate was placed in a 37 °C constant-temperature incubator and incubated for 20 min. Next, 25 μL of p-NPG (4 mM) was added to the plate to initiate the reaction, and it was further incubated in a 37 °C constant-temperature incubator for 15 min. Then, 50 μL of Na2CO3 (0.2 M) solution was quickly added to each well to terminate the reaction. The absorbance was measured at 405 nm using a microplate reader, and the results were obtained from a minimum of three independent experiments.
Test [5] has as its system HepG2 cells. As to the kind of experiment: Hepatoprotective activity, APAP-induced HepG2 cell injury model (CCK-8). The class given is cell-based. The following applies: for viability at 20 µM: Homo sapiens, 20 μM compound, APAP 6 mM, 48 h, HepG2, APAP model 68.24 ± 1.34%, n = 3, mean ± SD; for hepatoprotective activity (in words): 20 μM, APAP-induced HepG2 cell injury. The procedure:
All these parameters were higher than in the preparation of cell viability positive control of 83.01 ± 0.82%.
HepG2 cells were maintained in DMEM medium supplemented with 10% fetal bovine serum, 100 U/mL penicillin G, and 100 μg/mL streptomycin. The cells were seeded in culture flasks and placed in a 5% CO2 incubator at 37 °C for routine cultivation. The hepatoprotective activities of the isolated samples were tested according to the modified method. To evaluate the effect of test samples on cell viability, a CCK-8 assay was performed. The experiment was conducted in 96-well plates, and 100 μL of HepG2 cells in logarithmic growth phase (8 × 10^5 cells/mL) were seeded in each well and cultured for 24 h. After that, samples (final concentration of 20 μM) and acetaminophen (APAP, final concentration of 6 mM) were added at one time to incubate for another 48 h. Then, 10 μL CCK-8 was added to each well and incubated for 1 h, followed by measuring the absorbance at a wavelength of 450 nm using a microplate reader.

As usually defined, the IC50 is the point on the concentration scale where inhibition reaches its midpoint. A lower IC50 goes with higher potency. Turning to `O=C(CCc1ccc(O)cc1)c1c(O)cc(O)cc1O[C@@H]1O[C@H](CO)[C@@H](O)[C@H](O)[C@H]1O` [Compound 15, Phloridzin], the IC50 in test [1] was greater than 80 µM; in test [2], greater than 20 µM. For the same compound, the “FRAP Assay” value in test [3] turned out to be 0.17 ± 0.01 µmol/mL. For the same compound, the “α-glucosidase inhibition (in words)” value in test [4] is listed as “minimally or not”.
In general, viability refers to the share of living cells, or the viability signal relative to a control. High values mean better survival, low ones a greater loss of cells. Turning to `O=c1c(O)c(-c2ccc(O)c(O)c2)oc2cc(O)cc(O)c12` [Compound 4, Quercetin], the viability at 20 µM in test [5] came to 84.9 ± 1.21%. Also, the IC50 in test [1] was 25.5 ± 0.63 µM; in test [2], 2.76 ± 0.04 µM. Moreover, in test [3], the “FRAP Assay” value was 2.67 ± 0.01 µmol/mL.
Regarding `O=c1c(O)c(-c2ccc(O)cc2)oc2cc(O)cc(O)c12` [Compound 7, Kaempferol], the viability at 20 µM in test [5] was 87.08 ± 0.6%. Besides, the IC50 in test [1] is greater than 80 µM; in test [2], 19.9 ± 0.46 µM. Further, the “FRAP Assay” value in test [3] amounted to 0.85 ± 0.01 µmol/mL.
In the case of `O=C1c2c(O)cc(O)cc2O[C@@H](c2cc(O)c(O)c(O)c2)[C@@H]1O` [Compound 10, (2S,3S)-Dihydromyricetin], the IC50 was 43.5 ± 0.36 µM in test [1] and 5.01 ± 0.11 µM in test [2]. In addition, in test [3], the “FRAP Assay” value came out at 1.43 ± 0.01 µmol/mL.
Regarding `O=C(O[C@H]1C(=O)c2c(O)cc(O)cc2O[C@@H]1c1cc(O)c(O)c(O)c1)c1cc(O)c(O)c(O)c1` [Compound 19, (2R,3R)-3,4-Dihydro-5,7-dihydroxy-4-oxo-2-(3,4,5-trihydroxyphenyl)-2H-1-benzopyran-3-yl 3,4,5-trihydroxybenzoate], the IC50 is 17.3 ± 0.31 µM in test [1] and 2.19 ± 0.01 µM in test [2]. In test [3], the FRAP value was 2.79 µmol/mL. Besides, the “FRAP Assay” value in test [3] stood at 2.79 ± 0.01 µmol/mL.
For the compound `C[C@@H]1O[C@@H](Oc2c(-c3ccc(O)cc3)oc3cc(O)cc(O)c3c2=O)[C@H](O)[C@H](O)[C@H]1O` [Compound 14, Afzelin], the “hepatoprotective activity (in words)” value in test [5] was “essentially inactive”. Further, the IC50 was greater than 80 µM in test [1] and greater than 20 µM in test [2]. The “FRAP Assay” value in test [3] is 0.07 ± 0.00 µmol/mL.
Compound `O=C1C[C@@H](c2ccc(O)cc2)Oc2cc(O)cc(O)c21` [Compound 6, Naringenin] yielded a viability at 20 µM in test [5] of 83.7 ± 0.67%. Further, the IC50 in test [1] was greater than 80 µM; in test [2] it was greater than 20 µM. Also, in test [3], the “FRAP Assay” value was 0.07 ± 0.00 µmol/mL.
For the compound `O=C(O)c1c(O)cccc1CCc1ccc(O)cc1` [Compound 8, lunularic acid], the IC50 was greater than 80 µM in test [1] and greater than 20 µM in test [2]. The “FRAP Assay” value in test [3] came to 0.13 ± 0.01 µmol/mL.
Turning to lunularin [Compound 9], the IC50 in test [1] is greater than 80 µM; in test [2], greater than 20 µM; in test [4] (mean ± SD, n = 4, acarbose positive control), 9.42 ± 0.51 µM. Besides, the “FRAP Assay” value in test [3] was found to be 0.09 ± 0.00 µmol/mL.
In test [5], `O=C(O[C@H]1C(=O)c2c(cc(O)c(O)c2O)O[C@@H]1c1cc(O)c(O)c(O)c1)c1cc(O)c(O)c(O)c1` [Compound 1, Meichasu A] showed a viability at 20 µM of 84.93 ± 0.58%. Besides, the IC50 in test [1] was 32.52 ± 0.16 µM; in test [2], 4.43 ± 0.02 µM. Besides, the “FRAP Assay” value in test [3] came to 1.70 ± 0.00 µmol/mL.
Regarding `O=C1CC(c2cc(O)c(O)c(O)c2)Oc2cc(O)cc(O)c21` (stereo not shown) [Compound 17, 5,7,3′,4′,5′-Pentahydroxy flavanone], the values for the IC50 in test [1] and in test [2] were 43.1 ± 0.94 µM and 10.2 ± 0.13 µM, respectively. Moreover, the “FRAP Assay” value in test [3] turned out to be 1.18 ± 0.01 µmol/mL.
Take `CC(C)CC(=O)c1c(O)cc(O)cc1O[C@@H]1O[C@H](CO)[C@@H](O)[C@H](O)[C@H]1O` [Compound 16, 2-O-[1-(3-Methylbutyryl)phloroglucin-ol]-β-D-glucopyranoside]: the IC50 in test [1] is greater than 80 µM; in test [2], greater than 20 µM. In addition, the “FRAP Assay” value in test [3] was determined as 0.24 ± 0.01 µmol/mL.
Regarding `O=c1c(O)coc2cc(O)cc(O)c12` [Compound 11, 3,5,7-Trihydroxychromone], the results for the IC50 in test [1] and in test [2] were greater than 80 µM and greater than 20 µM, respectively. The “FRAP Assay” value in test [3] turned out to be 0.15 ± 0.00 µmol/mL.
As for `O=c1c(O)c(-c2cc(O)c(O)c(O)c2)oc2cc(O)cc(O)c12` [Compound 5, Myricetin], in test [5], the “hepatoprotective activity (in words)” value was “moderate hepatoprotective activities”. Further, the values for the IC50 in test [1] and in test [2] were 29.8 ± 0.59 µM and 3.39 ± 0.07 µM, respectively. In addition, in test [3], the “FRAP Assay” value turned out to be 1.72 ± 0.01 µmol/mL.
As for Myricitrin [Compound 13], the IC50 amounted to 35.03 ± 0.28 µM in test [1] and 6.88 ± 0.13 µM in test [2]. In addition, the “FRAP Assay” value in test [3] turned out to be 1.69 ± 0.02 µmol/mL. Also, the “α-glucosidase inhibition (in words)” value in test [4] is listed as “minimally or not”.
Regarding `O=C1c2c(O)cc(O)cc2O[C@H](c2cc(O)c(O)c(O)c2)[C@H]1O` [Compound 3, (2R,3R)-Dihydromyricetin], in test [5], the “hepatoprotective activity (in words)” value is listed as “moderate hepatoprotective activities”. The IC50 in test [1] was 28.3 ± 0.38 µM; in test [2], 5.91 ± 0.11 µM. Moreover, in test [3], the “FRAP Assay” value was 1.71 ± 0.01 µmol/mL.
`COC(=O)c1cc(OC)c2c(c1-c1c(CO)cc(OC)c3c1OCO3)OCO2` [bicyclol, reference compound] displayed a viability at 20 µM in test [5] of 83.01 ± 0.82%.
Consider `O=C1O[C@H]([C@@H](O)CO)C(O)=C1O` [ascorbic acid, reference compound], for which the IC50 in test [1] is 77.9 ± 0.87 µM; in test [2], 19 ± 0.31 µM. The “FRAP Assay” value in test [3] is 0.57 ± 0.01 µmol/mL.
With `O=C1c2c(O)cc(O)cc2OC(c2ccc(O)c(O)c2)C1O` (stereo not shown) [Compound 12, Taxifolin], in test [5], the viability at 20 µM was 85.4 ± 1.22%. The figures for the IC50 in test [1] and in test [2] were 39.21 ± 0.18 µM and 7.36 ± 0.08 µM, respectively. Besides, the “FRAP Assay” value in test [3] came out at 1.32 ± 0.01 µmol/mL.
Regarding `C[C@@H]1O[C@@H](Oc2c(-c3ccc(O)c(O)c3)oc3cc(O)cc(O)c3c2=O)[C@H](O)[C@H](O)[C@H]1O` [Compound 18, Quercitrin], in test [5], the “hepatoprotective activity (in words)” value was “essentially inactive”. The IC50 in test [1] worked out at 63.5 ± 0.97 µM; in test [2], 9.96 ± 0.16 µM. Moreover, in test [3], the “FRAP Assay” value is 1.35 ± 0.02 µmol/mL. Also, the “α-glucosidase inhibition (in words)” value in test [4] is on record as “minimally or not”.
In test [5], `C[C@@H]1O[C@@H](Oc2c(-c3ccc(O)c(O)c3)oc3c(O)c(O)c(O)c(O)c3c2=O)[C@H](O)[C@H](O)[C@H]1O` [Compound 2, Meichasu B] came in with a viability at 20 µM of 88.46 ± 0.63%. For the same compound, the IC50 worked out at 44.4 ± 0.63 µM in test [1] and 6.73 ± 0.03 µM in test [2]. For the same compound, in test [3], the “FRAP Assay” value was 1.96 ± 0.01 µmol/mL.
